Values of other authors, collected in publication PMC9516332 (Frontiers in Oncology, 2022).
Where two headings read alike, the source gives them in different places.

Legend:
Conditions in all cases: cited from earlier work
[1] = biological target: panel of 255 wild-type kinases (Homo sapiens, UniProt P11802)
[2] = biological target: T1, panel of 255 wild-type kinases (Homo sapiens, UniProt P15735)
T1 sequence (P15735 1-406): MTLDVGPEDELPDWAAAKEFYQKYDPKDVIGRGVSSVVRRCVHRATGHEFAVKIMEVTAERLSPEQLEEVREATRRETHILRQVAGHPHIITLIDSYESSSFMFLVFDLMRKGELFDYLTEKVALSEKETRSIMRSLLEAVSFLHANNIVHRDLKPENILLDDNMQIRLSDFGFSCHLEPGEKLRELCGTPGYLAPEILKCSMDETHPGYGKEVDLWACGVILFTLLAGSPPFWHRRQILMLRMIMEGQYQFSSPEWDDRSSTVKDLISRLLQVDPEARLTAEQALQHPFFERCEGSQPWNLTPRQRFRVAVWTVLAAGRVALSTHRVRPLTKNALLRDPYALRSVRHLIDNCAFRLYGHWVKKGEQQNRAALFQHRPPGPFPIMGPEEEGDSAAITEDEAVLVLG

[3] = biological target: T2, panel of 255 wild-type kinases (Homo sapiens, UniProt Q96L34)
T2 sequence (Q96L34 1-752): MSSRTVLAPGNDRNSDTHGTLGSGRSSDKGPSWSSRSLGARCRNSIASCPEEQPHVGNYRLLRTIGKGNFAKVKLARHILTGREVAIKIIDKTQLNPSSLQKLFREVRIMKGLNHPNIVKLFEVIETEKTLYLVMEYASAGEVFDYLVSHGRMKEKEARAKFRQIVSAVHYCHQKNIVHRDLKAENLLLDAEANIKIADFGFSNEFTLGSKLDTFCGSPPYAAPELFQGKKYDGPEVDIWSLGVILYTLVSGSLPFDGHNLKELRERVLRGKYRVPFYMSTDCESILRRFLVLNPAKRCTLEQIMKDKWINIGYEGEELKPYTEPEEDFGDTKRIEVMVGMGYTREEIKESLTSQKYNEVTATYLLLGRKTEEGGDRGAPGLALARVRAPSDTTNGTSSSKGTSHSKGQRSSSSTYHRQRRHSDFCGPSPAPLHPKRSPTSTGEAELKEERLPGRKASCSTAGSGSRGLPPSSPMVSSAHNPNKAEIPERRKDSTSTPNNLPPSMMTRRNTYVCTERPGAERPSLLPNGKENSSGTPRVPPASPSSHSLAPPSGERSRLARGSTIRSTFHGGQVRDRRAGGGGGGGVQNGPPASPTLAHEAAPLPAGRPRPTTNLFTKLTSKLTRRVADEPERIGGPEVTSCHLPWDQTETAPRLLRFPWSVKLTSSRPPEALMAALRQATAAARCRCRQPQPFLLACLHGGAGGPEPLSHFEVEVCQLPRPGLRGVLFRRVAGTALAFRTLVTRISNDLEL

[4] = biological target: panel of 255 wild-type kinases (Homo sapiens, UniProt Q16620)
[5] = biological target: panel of 255 wild-type kinases (Homo sapiens, UniProt P51957)
[6] = biological target: panel of 255 wild-type kinases (Homo sapiens, UniProt P35916)
[7] = biological target: panel of 255 wild-type kinases (Homo sapiens, UniProt P04626)
[8] = biological target: T3, panel of 255 wild-type kinases (Homo sapiens, UniProt Q8TD19)
T3 sequence (Q8TD19 1-979): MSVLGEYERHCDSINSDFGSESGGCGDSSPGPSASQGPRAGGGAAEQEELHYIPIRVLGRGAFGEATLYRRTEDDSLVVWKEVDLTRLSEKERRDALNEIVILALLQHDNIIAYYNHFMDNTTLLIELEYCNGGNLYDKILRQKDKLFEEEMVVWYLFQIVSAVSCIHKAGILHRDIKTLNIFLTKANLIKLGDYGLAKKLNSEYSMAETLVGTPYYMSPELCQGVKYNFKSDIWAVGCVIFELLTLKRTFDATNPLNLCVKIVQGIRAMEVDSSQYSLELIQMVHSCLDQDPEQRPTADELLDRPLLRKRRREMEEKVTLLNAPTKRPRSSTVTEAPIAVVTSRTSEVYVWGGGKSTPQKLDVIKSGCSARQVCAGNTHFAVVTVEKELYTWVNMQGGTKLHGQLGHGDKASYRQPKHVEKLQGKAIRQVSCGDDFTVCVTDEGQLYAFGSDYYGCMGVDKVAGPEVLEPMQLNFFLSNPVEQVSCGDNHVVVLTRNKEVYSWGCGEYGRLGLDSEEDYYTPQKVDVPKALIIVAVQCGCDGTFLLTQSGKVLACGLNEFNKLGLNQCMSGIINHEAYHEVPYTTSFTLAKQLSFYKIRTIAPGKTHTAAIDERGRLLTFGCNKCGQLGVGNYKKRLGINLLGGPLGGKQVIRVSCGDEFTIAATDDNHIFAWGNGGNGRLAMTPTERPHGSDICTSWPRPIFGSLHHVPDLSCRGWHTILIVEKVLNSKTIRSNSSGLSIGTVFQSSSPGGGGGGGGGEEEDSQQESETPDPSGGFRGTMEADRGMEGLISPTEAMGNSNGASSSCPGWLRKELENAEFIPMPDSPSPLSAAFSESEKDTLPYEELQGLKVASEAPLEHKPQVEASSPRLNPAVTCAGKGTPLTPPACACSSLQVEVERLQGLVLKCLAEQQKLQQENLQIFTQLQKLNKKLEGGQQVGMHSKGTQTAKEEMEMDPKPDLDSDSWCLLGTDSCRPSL

[9] = CDK4/CycD3 kinase assay, 1 µmol/L single concentration, ref DOI: 10.1158/1535-7163.MCT-18-0877
[10] = kinase PHKG2, 1 µmol/L single concentration, ref DOI: 10.1158/1535-7163.MCT-18-0877
[11] = MARK4, 1 µmol/L single concentration, ref DOI: 10.1158/1535-7163.MCT-18-0877
[12] = kinase TRKB, 1 µmol/L single concentration, ref DOI: 10.1158/1535-7163.MCT-18-0877
[13] = NEK4, 1 µmol/L single concentration, ref DOI: 10.1158/1535-7163.MCT-18-0877
[14] = kinase FLT4, 1 µmol/L single concentration, ref DOI: 10.1158/1535-7163.MCT-18-0877
[15] = kinase HER2, 1 µmol/L single concentration, ref DOI: 10.1158/1535-7163.MCT-18-0877
[16] = NEK9, 1 µmol/L single concentration, ref DOI: 10.1158/1535-7163.MCT-18-0877
[17] = CDK4/CycD3 kinase assay, 1 µmol/L single concentration, ref DOI: 10.1371/journal.pone.0092146
[18] = kinase PHKG2, 1 µmol/L single concentration, ref DOI: 10.1371/journal.pone.0092146
[19] = MARK4, 1 µmol/L single concentration, ref DOI: 10.1371/journal.pone.0092146
[20] = kinase TRKB, 1 µmol/L single concentration, ref DOI: 10.1371/journal.pone.0092146
[21] = NEK4, 1 µmol/L single concentration, ref DOI: 10.1371/journal.pone.0092146
[22] = kinase FLT4, 1 µmol/L single concentration, ref DOI: 10.1371/journal.pone.0092146
[23] = NEK9, 1 µmol/L single concentration, ref DOI: 10.1371/journal.pone.0092146

Row | SMILES | %-inhibition CDK4/CycD3 [1, 9] [%] | %-inhibition at 1 µmol/L, PHKG2 [2, 10] [%] | %-inhibition, MARK4 [3, 11] [%] | %-inhibition at 1 µmol/L, TRKB [4, 12] [%] | %-inhibition, NEK4 [5, 13] [%] | %-inhibition at 1 µmol/L, FLT4 [6, 14] [%] | %-inhibition at 1 µmol/L, HER2 [7, 15] [%] | %-inhibition, NEK9 [8, 16] [%] | also measured
1 | CC#CC(=O)N1CCC[C@H]1c1nc(-c2ccc(C(=O)Nc3ccccn3)cc2)c2c(N)nccn12 [acalabrutinib] | -13 | 0.00605 | -15 | 14 | -4.76 | 1.41 | 16 | -3.18 | –
2 | CCc1cc2c(cc1N1CCC(N3CCOCC3)CC1)C(C)(C)c1[nH]c3cc(C#N)ccc3c1C2=O [alectinib] | -1.89 | 75 | -3 | 38 | -1.16 | 39 | -1.77 | 0.368 | –
3 | COc1cc(N2CCC(N3CCN(C)CC3)CC2)ccc1Nc1ncc(Cl)c(Nc2ccccc2P(C)(C)=O)n1 [brigatinib] | – | – | – | – | – | – | – | – | %-inhibition CDK4/CycD3 [1]: 40%; %-inhibition at 1 µmol/L, PHKG2 [2]: 96%; %-inhibition, MARK4 [3]: 101%; %-inhibition at 1 µmol/L, TRKB [4]: 27%; %-inhibition, NEK4 [5]: 25%; %-inhibition at 1 µmol/L, FLT4 [6]: 99%; %-inhibition at 1 µmol/L, HER2 [7]: 69%; %-inhibition, NEK9 [8]: 70%
4 | Cc1cc(Nc2ncc(Cl)c(Nc3ccccc3S(=O)(=O)C(C)C)n2)c(OC(C)C)cc1C1CCNCC1 [ceritinib] | 4.63 | 83 | -2.63 | 20 | -3.48 | 75 | 9 | 9 | –
5 | O=C(c1ccc(F)c(F)c1Nc1ccc(I)cc1F)N1CC(O)([C@@H]2CCCCN2)C1 [cobimetinib] | 0.294 | 2.22 | -15 | -1.39 | 5 | -6 | -1.21 | -2.32 | –
6 | C[C@@H](Oc1cc(-c2cnn(C3CCNCC3)c2)cnc1N)c1c(Cl)ccc(F)c1Cl [crizotinib] | – | – | – | – | – | – | – | – | %-inhibition CDK4/CycD3 [1, 17]: 7%; %-inhibition at 1 µmol/L, PHKG2 [2, 18]: 10%; %-inhibition, MARK4 [3, 19]: 51%; %-inhibition at 1 µmol/L, TRKB [4, 20]: 102%; %-inhibition, NEK4 [5, 21]: 4.57%; %-inhibition at 1 µmol/L, FLT4 [6, 22]: 48%; %-inhibition at 1 µmol/L, HER2 [7]: -0.714%; %-inhibition, NEK9 [8, 23]: 57%
7 | CC(C)(C)c1nc(-c2cccc(NS(=O)(=O)c3c(F)cccc3F)c2F)c(-c2ccnc(N)n2)s1 [dabrafenib] | – | – | – | – | – | – | – | – | %-inhibition CDK4/CycD3 [1, 17]: 23%; %-inhibition at 1 µmol/L, PHKG2 [2, 18]: 2%; %-inhibition, MARK4 [3, 19]: -27%; %-inhibition at 1 µmol/L, TRKB [4, 20]: 86%; %-inhibition, NEK4 [5, 21]: 4%; %-inhibition at 1 µmol/L, FLT4 [6, 22]: 85%; %-inhibition at 1 µmol/L, HER2 ([7]; kinase HER2, 1 µmol/L single concentration, ref DOI: 10.1371/journal.pone.0092146): 50%; %-inhibition, NEK9 [8, 23]: 101%
8 | C=CC(=O)N1CCC[C@@H](n2nc(-c3ccc(Oc4ccccc4)cc3)c3c(N)ncnc32)C1 [ibrutinib] | 4 | 0.816 | -14 | 26 | 4.65 | 91 | 100 | -3.28 | –
9 | CO[C@@H]1[C@H](N(C)C(=O)c2ccccc2)C[C@H]2O[C@]1(C)n1c3ccccc3c3c4c(c5c6ccccc6n2c5c31)C(=O)NC4 [midostaurin] | -1.1 | 67 | 101 | 99 | 26 | 99 | 63 | 48 | –
